Test results published in US20200131196A1 (Mount Tam Therapeutics, Inc., priority 2017, published 2020).
Several values for one entry are separate records, joined by “and”; a condition that tells them apart may be missing. Identical values can stand only once. Like-named read-outs stand apart in the source and are kept apart here.

Experiments:
[1] = at 30 days
Description: (§1) Tumor growth was monitored daily. […] Significance was set at p≤0.05.

[2] = mouse, in vivo, ip
Description: as §1

[3] = Whole blood concentrations in mice after IP dosing (LC-MS/MS); format: in vivo, mouse; conditions: for approximate mean concentration in whole blood: up to six hours following administration
Description: Shown below are whole blood concentrations following administration of the compound of Formula II to mice. The compound of Formula II was administered to mice at 2 mg/kg or 10 mg/kg and the concentration of the compound in whole blood determined. These determinations were made using protein precipitation, liquid chromatography (LC), and mass spectrometry (MS/MS). Ten μl aliquots of whole blood and matrix calibration standards were distributed in a 96-well plate; 10 μl aliquots of blank matrix for matrix blanks and control blanks were included as controls. Ten μl of water was added to each sample followed by vortexing. One hundred sixty […] of internal standard was added to each sample except the matrix blanks; 160 μl 70:30 water:acetonitrile (ACN) was added to matrix blanks. This was followed by a […]. One hundred fifty μl of the resultant supernatant was then transferred to a new 96-well plate and the samples blown to dryness at 35° C. The resultant product was then reconstituted with 90 μl ACN.

CO[C@H]1C[C@@H]2CC[C@@H](C)[C@@](O)(O2)C(=O)C(=O)N2CCCC[C@H]2C(=O)O[C@H]([C@H](C)C[C@H]2C[C@H]3C[C@@H]2C[C@@H]3O)CC(=O)[C@H](C)/C=C(\C)[C@@H](O)[C@@H](OC)C(=O)[C@H](C)C[C@H](C)/C=C/C=C/C=C/1C [Formula II, C37-[(1R,2S,4R,5S)-5-hyhroxybicyclo[2.2.1]heptane] rapamycin]
Percent Survival [1]: 100% | Percent Survival ([1]; listed as Formula I): 100% | Body Wt. % Δ from Baseline, Mean [2]: 14.68% | Body Wt. % Δ from Baseline, Median [2]: 14.64% | Change in Body Weight Day 1-30, Mean [2]: 3.13 | Change in Body Weight Day 1-30, Median [2]: 3.08 | Day 30 Body Weight, Mean [2]: 24.37 g | Day 30 Body Weight, Median [2]: 24.12 g | Formula II Concentrations in Mouse Whole Blood, Mean ([3]; 2 mg/kg IP QD × 3 days, Day 1, 1.00 hrs): 383 ng/mL | Formula II Concentrations in Mouse Whole Blood, individual animals ([3]; 2 mg/kg IP QD × 3 days, Day 1, 1.00 hrs, animals 7, 8, 9): 452 ng/mL and 380 ng/mL and 317 ng/mL | Formula II Concentrations in Mouse Whole Blood, Mean ([3]; 2 mg/kg IP QD × 3 days, Day 1, 2.00 hrs): 403 ng/mL | Formula II Concentrations in Mouse Whole Blood, individual animals ([3]; 2 mg/kg IP QD × 3 days, Day 1, 2.00 hrs, animals 7, 8, 9): 415 ng/mL (2×) and 378 ng/mL | Formula II Concentrations in Mouse Whole Blood, Mean ([3]; 2 mg/kg IP QD × 3 days, Day 1, 6.00 hrs): 464 ng/mL | Formula II Concentrations in Mouse Whole Blood, individual animals ([3]; 2 mg/kg IP QD × 3 days, Day 1, 6.00 hrs, animals 7, 8, 9): 382 ng/mL and 520 ng/mL and 490 ng/mL | Formula II Concentrations in Mouse Whole Blood, individual animals ([3]; 2 mg/kg IP QD × 3 days, Day 1, 24.0 hrs, animals 7, 8, 9): 18.4 ng/mL and 14.7 ng/mL | Formula II Concentrations in Mouse Whole Blood, individual animals ([3]; 2 mg/kg IP QD × 3 days, Day 2, 1.00 hrs, animals 7, 8, 9): 481 ng/mL and 208 ng/mL and 524 ng/mL | Formula II Concentrations in Mouse Whole Blood, individual animals ([3]; 2 mg/kg IP QD × 3 days, Day 2, 2.00 hrs, animals 7, 8, 9): 501 ng/mL and 233 ng/mL and 570 ng/mL | Formula II Concentrations in Mouse Whole Blood, individual animals ([3]; 2 mg/kg IP QD × 3 days, Day 2, 6.00 hrs, animals 7, 8, 9): 632 ng/mL and 552 ng/mL | Formula II Concentrations in Mouse Whole Blood, individual animals ([3]; 2 mg/kg IP QD × 3 days, Day 2, 24.0 hrs, animals 7, 8, 9): 15.3 ng/mL and 80.6 ng/mL and 35.2 ng/mL | Formula II Concentrations in Mouse Whole Blood, Mean ([3]; 2 mg/kg IP QD × 3 days, Day 3, 1.00 hrs): 651 ng/mL | Formula II Concentrations in Mouse Whole Blood, individual animals ([3]; 2 mg/kg IP QD × 3 days, Day 3, 1.00 hrs, animals 7, 8, 9): 726 ng/mL and 600 ng/mL | Formula II Concentrations in Mouse Whole Blood, Mean ([3]; 2 mg/kg IP QD × 3 days, Day 3, 2.00 hrs): 501 ng/mL | Formula II Concentrations in Mouse Whole Blood, individual animals ([3]; 2 mg/kg IP QD × 3 days, Day 3, 2.00 hrs, animals 7, 8, 9): 478 ng/mL and 489 ng/mL and 535 ng/mL | Formula II Concentrations in Mouse Whole Blood, Mean ([3]; 2 mg/kg IP QD × 3 days, Day 3, 6.00 hrs): 588 ng/mL | Formula II Concentrations in Mouse Whole Blood, individual animals ([3]; 2 mg/kg IP QD × 3 days, Day 3, 6.00 hrs, animals 7, 8, 9): 416 ng/mL and 745 ng/mL and 604 ng/mL | Formula II Concentrations in Mouse Whole Blood, Mean ([3]; 2 mg/kg IP QD × 3 days, Day 3, 24.0 hrs): 41.9 ng/mL | Formula II Concentrations in Mouse Whole Blood, individual animals ([3]; 2 mg/kg IP QD × 3 days, Day 3, 24.0 hrs, animals 7, 8, 9): 17.6 ng/mL and 59.6 ng/mL and 48.6 ng/mL | concentrations in whole blood over time (in words) ([3]; 2 mg/kg or 10 mg/kg IP QD for three days): sufficient concentrations in whole blood | Formula II Concentrations in Mouse Whole Blood, Mean ([3]; 10 mg/kg IP QD × 3 days, Day 1, 1.00 hrs): 657 ng/mL | Formula II Concentrations in Mouse Whole Blood, individual animals ([3]; 10 mg/kg IP QD × 3 days, Day 1, 1.00 hrs, animals 10, 11, 12): 560 ng/mL and 641 ng/mL and 769 ng/mL | Formula II Concentrations in Mouse Whole Blood, Mean ([3]; 10 mg/kg IP QD × 3 days, Day 1, 2.00 hrs): 722 ng/mL | Formula II Concentrations in Mouse Whole Blood, individual animals ([3]; 10 mg/kg IP QD × 3 days, Day 1, 2.00 hrs, animals 10, 11, 12): 793 ng/mL and 869 ng/mL and 503 ng/mL | Formula II Concentrations in Mouse Whole Blood, Mean ([3]; 10 mg/kg IP QD × 3 days, Day 1, 6.00 hrs): 1165 ng/mL | Formula II Concentrations in Mouse Whole Blood, individual animals ([3]; 10 mg/kg IP QD × 3 days, Day 1, 6.00 hrs, animals 10, 11, 12): 1000 ng/mL and 1950 ng/mL and 544 ng/mL | Formula II Concentrations in Mouse Whole Blood, Mean ([3]; 10 mg/kg IP QD × 3 days, Day 1, 24.0 hrs): 204 ng/mL | Formula II Concentrations in Mouse Whole Blood, individual animals ([3]; 10 mg/kg IP QD × 3 days, Day 1, 24.0 hrs, animals 10, 11, 12): 222 ng/mL and 181 ng/mL and 210 ng/mL | Formula II Concentrations in Mouse Whole Blood, Mean ([3]; 10 mg/kg IP QD × 3 days, Day 2, 1.00 hrs): 2309 ng/mL | Formula II Concentrations in Mouse Whole Blood, individual animals ([3]; 10 mg/kg IP QD × 3 days, Day 2, 1.00 hrs, animals 10, 11, 12): 3410 ng/mL and 2970 ng/mL and 546 ng/mL | Formula II Concentrations in Mouse Whole Blood, Mean ([3]; 10 mg/kg IP QD × 3 days, Day 2, 2.00 hrs): 3323 ng/mL | Formula II Concentrations in Mouse Whole Blood, individual animals ([3]; 10 mg/kg IP QD × 3 days, Day 2, 2.00 hrs, animals 10, 11, 12): 3670 ng/mL and 3930 ng/mL and 2370 ng/mL | Formula II Concentrations in Mouse Whole Blood, Mean ([3]; 10 mg/kg IP QD × 3 days, Day 2, 6.00 hrs): 2256 ng/mL | Formula II Concentrations in Mouse Whole Blood, individual animals ([3]; 10 mg/kg IP QD × 3 days, Day 2, 6.00 hrs, animals 10, 11, 12): 2770 ng/mL and 3390 ng/mL and 609 ng/mL | Formula II Concentrations in Mouse Whole Blood, Mean ([3]; 10 mg/kg IP QD × 3 days, Day 2, 24.0 hrs): 179 ng/mL | Formula II Concentrations in Mouse Whole Blood, individual animals ([3]; 10 mg/kg IP QD × 3 days, Day 2, 24.0 hrs, animals 10, 11, 12): 123 ng/mL and 336 ng/mL and 78.0 ng/mL | Formula II Concentrations in Mouse Whole Blood, Mean ([3]; 10 mg/kg IP QD × 3 days, Day 3, 1.00 hrs): 2204 ng/mL | Formula II Concentrations in Mouse Whole Blood, individual animals ([3]; 10 mg/kg IP QD × 3 days, Day 3, 1.00 hrs, animals 10, 11, 12): AQL and 3420 ng/mL and 987 ng/mL | Formula II Concentrations in Mouse Whole Blood, Mean ([3]; 10 mg/kg IP QD × 3 days, Day 3, 2.00 hrs): 3199 ng/mL | Formula II Concentrations in Mouse Whole Blood, individual animals ([3]; 10 mg/kg IP QD × 3 days, Day 3, 2.00 hrs, animals 10, 11, 12): 5170 ng/mL and 3650 ng/mL and 777 ng/mL | Formula II Concentrations in Mouse Whole Blood, Mean ([3]; 10 mg/kg IP QD × 3 days, Day 3, 6.00 hrs): 2317 ng/mL | Formula II Concentrations in Mouse Whole Blood, individual animals ([3]; 10 mg/kg IP QD × 3 days, Day 3, 6.00 hrs, animals 10, 11, 12): 3330 ng/mL and 2890 ng/mL and 730 ng/mL | Formula II Concentrations in Mouse Whole Blood, Mean ([3]; 10 mg/kg IP QD × 3 days, Day 3, 24.0 hrs): 223 ng/mL | Formula II Concentrations in Mouse Whole Blood, individual animals ([3]; 10 mg/kg IP QD × 3 days, Day 3, 24.0 hrs, animals 10, 11, 12): 223 ng/mL and 323 ng/mL and 124 ng/mL | approximate mean concentration in whole blood ([3]; about 2 mg/kg): 383 to 651 ng/mL | approximate mean concentration in whole blood ([3]; about 10 mg/kg): 657 to 3323 ng/mL | concentration at 24 h ([3]; mouse, whole blood, intraperitoneal, 2 mg/kg, 2 mg/kg IP QD × 3 days, Day 1, 24.0 hrs, animals 7, 8, 9, read-out: Formula II Concentrations in Mouse Whole Blood, individual animals): 12.2 ng/mL | concentration at 24 h ([3]; mouse, whole blood, intraperitoneal, 2 mg/kg, 2 mg/kg IP QD × 3 days, Day 1, 24.0 hrs, read-out: Formula II Concentrations in Mouse Whole Blood, Mean): 15.1 ng/mL | concentration at 1 h ([3]; mouse, whole blood, intraperitoneal, 2 mg/kg, 2 mg/kg IP QD × 3 days, Day 2, 1.00 hrs, read-out: Formula II Concentrations in Mouse Whole Blood, Mean): 404 ng/mL | concentration at 2 h ([3]; mouse, whole blood, intraperitoneal, 2 mg/kg, 2 mg/kg IP QD × 3 days, Day 2, 2.00 hrs, read-out: Formula II Concentrations in Mouse Whole Blood, Mean): 435 ng/mL | concentration at 6 h ([3]; mouse, whole blood, intraperitoneal, 2 mg/kg, 2 mg/kg IP QD × 3 days, Day 2, 6.00 hrs, animals 7, 8, 9, read-out: Formula II Concentrations in Mouse Whole Blood, individual animals): 553 ng/mL | concentration at 6 h ([3]; mouse, whole blood, intraperitoneal, 2 mg/kg, 2 mg/kg IP QD × 3 days, Day 2, 6.00 hrs, read-out: Formula II Concentrations in Mouse Whole Blood, Mean): 579 ng/mL | concentration at 24 h ([3]; mouse, whole blood, intraperitoneal, 2 mg/kg, 2 mg/kg IP QD × 3 days, Day 2, 24.0 hrs, read-out: Formula II Concentrations in Mouse Whole Blood, Mean): 43.7 ng/mL | concentration at 1 h ([3]; mouse, whole blood, intraperitoneal, 2 mg/kg, 2 mg/kg IP QD × 3 days, Day 3, 1.00 hrs, animals 7, 8, 9, read-out: Formula II Concentrations in Mouse Whole Blood, individual animals): 628 ng/mL | concentration at 24 h ([3]; mouse, whole blood, intraperitoneal, 2 mg/kg, about 2 mg/kg, at about 24 hours following administration, read-out: approximate mean concentration in whole blood): 15 to 43.7 ng/mL | concentration at 24 h ([3]; mouse, whole blood, intraperitoneal, 10 mg/kg, about 10 mg/kg, at about 24 hours following administration, read-out: approximate mean concentration in whole blood): 21 to 138 ng/mL
